Each structure is given as a SMILES string. Values after ≈ are worked out from the molar mass of the structure shown. Active and inactive are the calls of the source. The rule behind the calls is not given here.

Assay [1] deals with Aspergillus niger. Nature of the assay: Antifungal activity against Aspergillus niger after 7 days by agar tube dilution method. It counts as functional. As to conditions: 168 h.
For assay [2], the system named is Pleurotus ostreatus. Briefly: Antifungal activity against Pleurotus ostreatus after 7 days by agar tube dilution method. It counts as functional. To be noted: 168 h.
Assay [3] has as its system Scedosporium boydii. Nature of the assay: Antifungal activity against Allescheria boydii after 7 days by agar tube dilution method. The format is functional. As to conditions: 168 h.
The test system of assay [4] is Epidermophyton floccosum. Briefly: Antifungal activity against Epidermophyton floccosum after 7 days by agar tube dilution method. It counts as functional. To be noted: 168 h.
Assay [5] is described as follows: Antifungal activity against Dutarium rotatum after 7 days by agar tube dilution method. It counts as functional.
Assay [6] concerns Nigrospora oryzae. Nature of the assay: Antifungal activity against Nigrospora oryzae after 7 days by agar tube dilution method. The format is functional, organism-based.
The test system of assay [7] is Stachybotrys chartarum. Nature of the assay: Antifungal activity against Stachybotrys atra after 7 days by agar tube dilution method. It counts as functional, organism-based.

On to `CCN1C[C@]2(C)CC[C@H](OC)[C@@]34[C@@H]5C[C@@H]6CC[C@](OC(C)=O)([C@@H](C[C@H]23)[C@@H]14)[C@H]5C(=O)O6`, for which the MIC in assay [1] was 200 µg/mL (≈ 479 µM); in assay [2], 150 µg/mL (≈ 359 µM); in assay [3], 100 µg/mL (≈ 239 µM); in assay [4], 250 µg/mL (≈ 599 µM).

Turning to `C=C1C[C@@]23CC(=O)[C@@H]4[C@@]5(C)C[C@H](OC(C)=O)C[C@@]46[C@@H]2C[C@@H]1C(=O)[C@@H]3[C@H]6N(C)C5` [PANICUTINE], the MIC in assay [1] amounted to 125 µg/mL (≈ 326 µM); in assay [2], 125 µg/mL (≈ 326 µM); in assay [3], 75 µg/mL (≈ 196 µM); in assay [4] it was 200 µg/mL (≈ 522 µM). Also, the result in assay [5], in assay [6] and in assay [7] was Active.

`C=C1C[C@@]23C(=O)C(=O)[C@@H]4[C@@]5(C)C[C@H](OC(C)=O)C[C@@]46[C@@H]2C[C@@H]1C(=O)[C@@H]3[C@H]6N(C)C5` [VILMORRIANONE]: the MIC was found to be 100 µg/mL (≈ 252 µM) in assay [1], 175 µg/mL (≈ 440 µM) in assay [2], 150 µg/mL (≈ 377 µM) in assay [3] and 225 µg/mL (≈ 566 µM) in assay [4].

By MIC is commonly meant the least concentration at which growth counts as inhibited.
